Values after ≈ are worked out from the molar mass of the structure shown.
What was measured:
Conditions in all cases: 72 hours
[1] = tested on: leukemia cells (MOLT-4); test: MTT cytotoxicity assay, leukemia cells (MOLT-4); type: cell-based, human
Description: (§1) After 72 hours, the assay was terminated and percent cyotoxicities calculated.

[2] = tested on: human prostate (DU145); test: MTT cytotoxicity assay, human prostate (DU145); type: cell-based
Description: as §1

[3] = tested on: human lung (L132); test: MTT cytotoxicity assay, human lung (L132); type: cell-based
Description: as §1

[4] = tested on: lymphoma cells (U937); test: MTT cytotoxicity assay, lymphoma cells (U937); type: cell-based, human
Description: as §1

[5] = tested on: human larynx (HeP.2); test: MTT cytotoxicity assay, human larynx (HeP.2); type: cell-based
Description: as §1

[6] = tested on: human colon (HT29); test: MTT cytotoxicity assay, human colon (HT29); type: cell-based
Description: as §1

[7] = tested on: ovarian cancer cells (PA-1); test: MTT cytotoxicity assay, ovarian cancer cells (PA-1); type: cell-based, human
Description: as §1

SMILES | ED50 Leukemia MOLT-4 [1] | ED50 Prostate DU 145 [2] | ED50 Lung L 132 [3] | ED50 Lymphoma U937 [4] | ED50 Larynx Hep. 2 [5] | ED50 Colon HT-29 [6] | ED50 Ovary PA-I [7]
CC(C)C1CCC2(C(=O)O)CCC3(C)C(CCC4C5(C)CCC(OC(=O)c6cccc(C(F)(F)F)c6)C(C)(C)C5CCC43C)C12 (centres unmarked) [Derivative 940] | 0.4 µg/mL (≈ 0.634 µM) | >4 µg/mL | 2.6 µg/mL (≈ 4.12 µM) | 0.8 µg/mL (≈ 1.27 µM) | 5.4 µg/mL (≈ 8.56 µM) | >10 µg/mL | 3.8 µg/mL (≈ 6.02 µM)
CC(C)C1CCC2(C(=O)O)CCC3(C)C(CCC4C5(C)CCC(OS(C)(=O)=O)C(C)(C)C5CCC43C)C12 (centres unmarked) [Derivative 789] | 2.0 µg/mL (≈ 3.73 µM) | >10 µg/mL | 6.5 µg/mL (≈ 12.1 µM) | 1.4 µg/mL (≈ 2.61 µM) | >10 µg/mL | 1.4 µg/mL (≈ 2.61 µM) | >4.0 µg/mL
C=C(C)C1CCC2(C(=O)O)CCC3(C)C(CCC4C5(C)CCC(OC(=O)c6ccc(CCCCC)cc6)C(C)(C)C5CCC43C)C12 (centres unmarked) [Derivative 1104] | 1.5 µg/mL (≈ 2.38 µM) | 2.0 µg/mL (≈ 3.17 µM) | 5.9 µg/mL (≈ 9.35 µM) | 1.1 µg/mL (≈ 1.74 µM) | 1.7 µg/mL (≈ 2.69 µM) | 3.5 µg/mL (≈ 5.55 µM) | 0.8 µg/mL (≈ 1.27 µM)
CC(C)C1CCC2(C(=O)O)CCC3(C)C(CCC4C5(C)CCC(N=Cc6ccc(F)c(F)c6)C(C)(C)C5CCC43C)C12 (centres unmarked) [Derivative 998] | 1.9 µg/mL (≈ 3.27 µM) | 2.2 µg/mL (≈ 3.78 µM) | 2.5 µg/mL (≈ 4.3 µM) | 1.6 µg/mL (≈ 2.75 µM) | 3.0 µg/mL (≈ 5.16 µM) | 4.0 µg/mL (≈ 6.87 µM) | 1.2 µg/mL (≈ 2.06 µM)
CC(C)C1CCC2(C(=O)O)CCC3(C)C(CCC4C5(C)CCC(N=Cc6ccc(F)cc6F)C(C)(C)C5CCC43C)C12 (centres unmarked) [Derivative 1065] | 1.0 µg/mL (≈ 1.72 µM) | 2.5 µg/mL (≈ 4.3 µM) | 3.4 µg/mL (≈ 5.84 µM) | 1.9 µg/mL (≈ 3.27 µM) | 2.6 µg/mL (≈ 4.47 µM) | 4.9 µg/mL (≈ 8.42 µM) | 1.4 µg/mL (≈ 2.41 µM)
COC(=O)COC(=O)C12CCC(C(C)C)C1C1CCC3C4(C)CCC(NC(C)=O)C(C)(C)C4CCC3(C)C1(C)CC2 (centres unmarked) [Derivative 1025] | 1.0 µg/mL (≈ 1.75 µM) | >4 µg/mL | 3.2 µg/mL (≈ 5.6 µM) | >10 µg/mL | >10 µg/mL | >10 µg/mL | >4.0 µg/mL
CC(C)C1CCC2(C(=O)OC3CCC4(C)C(CCC5(C)C4CCC4C6C(C(C)C)CCC6(C(=O)O)CCC45C)C3(C)C)CCC3(C)C(CCC4C5(C)CC(Br)C(=O)C(C)(C)C5CCC43C)C12 (centres unmarked) [Derivative 1161] | 0.34 µg/mL (≈ 0.348 µM) | 0.4 µg/mL (≈ 0.41 µM) | 3.5 µg/mL (≈ 3.58 µM) | 0.3 µg/mL (≈ 0.307 µM) | 1.4 µg/mL (≈ 1.43 µM) | 3.5 µg/mL (≈ 3.58 µM) | 1.2 µg/mL (≈ 1.23 µM)
C=C(C)C1CCC2(C(=O)O)CCC3(C)C(CCC4C5(C)CCC(OC(=O)c6cccc(C(F)(F)F)c6)C(C)(C)C5CCC43C)C12 (centres unmarked) [Derivative 939] | 1.4 µg/mL (≈ 2.23 µM) | >10 µg/mL | 2.7 µg/mL (≈ 4.29 µM) | 5.7 µg/mL (≈ 9.06 µM) | 4.0 µg/mL (≈ 6.36 µM) | >10 µg/mL | >4.0 µg/mL
C=CC(=O)OC(=O)C12CCC(C(C)C)C1C1CCC3C4(C)CCC(O)C(C)(C)C4CCC3(C)C1(C)CC2 (centres unmarked) [Derivative 1103] | 1.9 µg/mL (≈ 3.71 µM) | >4 µg/mL | 4.0 µg/mL (≈ 7.8 µM) | 1.0 µg/mL (≈ 1.95 µM) | 3.0 µg/mL (≈ 5.85 µM) | 10.0 µg/mL (≈ 19.5 µM) | 1.5 µg/mL (≈ 2.93 µM)
CC(C)C1CCC2(C(=O)OC(=O)C34CCC(C(C)C)C3C3CCC5C6(C)CC(Br)C(=O)C(C)(C)C6CCC5(C)C3(C)CC4)CCC3(C)C(CCC4C5(C)CC(Br)C(=O)C(C)(C)C5CCC43C)C12 (centres unmarked) [Derivative 1163] | 1.6 µg/mL (≈ 1.52 µM) | 6.0 µg/mL (≈ 5.7 µM) | 6.5 µg/mL (≈ 6.17 µM) | 3.8 µg/mL (≈ 3.61 µM) | 5.0 µg/mL (≈ 4.75 µM) | 7.3 µg/mL (≈ 6.93 µM) | >4.0 µg/mL
C=C(C)C1CCC2(C(=O)O)CCC3(C)C(CCC4C5(C)CCC(OS(C)(=O)=O)C(C)(C)C5CCC43C)C12 (centres unmarked) [Derivative 751] | 0.65 µg/mL (≈ 1.22 µM) | >10 µg/mL | 5 µg/mL (≈ 9.35 µM) | >4 µg/mL | 7.0 µg/mL (≈ 13.1 µM) | – | –
C=C(C)[C@@H]1CC[C@]2(C(=O)O)CC[C@]3(C)[C@H](CC[C@@H]4[C@@]5(C)CC[C@H](O)C(C)(C)[C@@H]5CC[C@]43C)[C@@H]12 [BA] | 1.9 µg/mL (≈ 4.16 µM) | >10 µg/mL | 3.2 µg/mL (≈ 7.01 µM) | 0.7 µg/mL (≈ 1.53 µM) | >10 µg/mL | 1.8 µg/mL (≈ 3.94 µM) | 17 µg/mL (≈ 37.2 µM)
C=C(C)C1CCC2(C(=O)O)CCC3(C)C(CCC4C5(C)CCC(OC(=O)c6ccc(CCCCCCC)cc6)C(C)(C)C5CCC43C)C12 (centres unmarked) [Derivative 1138] | 2.0 µg/mL (≈ 3.03 µM) | >10 µg/mL | 7.0 µg/mL (≈ 10.6 µM) | 1.1 µg/mL (≈ 1.67 µM) | 2.0 µg/mL (≈ 3.03 µM) | >10 µg/mL | 1.3 µg/mL (≈ 1.97 µM)
CC(C)C1CCC2(C(=O)O)CCC3(C)C(CCC4C5(C)CCC(NC(=O)CCl)C(C)(C)C5CCC43C)C12 (centres unmarked) [Derivative 1022] | 1.8 µg/mL (≈ 3.37 µM) | >10 µg/mL | 4.7 µg/mL (≈ 8.8 µM) | 5.5 µg/mL (≈ 10.3 µM) | 3.5 µg/mL (≈ 6.55 µM) | >10 µg/mL | 0.6 µg/mL (≈ 1.12 µM)
C=C(C)C1CCC2(C(=O)O)CCC3(C)C(CCC4C5(C)CCC(OC(=O)c6cc(F)cc(F)c6)C(C)(C)C5CCC43C)C12 (centres unmarked) [Derivative 935] | 0.6 µg/mL (≈ 1.01 µM) | 3.2 µg/mL (≈ 5.36 µM) | 1.2 µg/mL (≈ 2.01 µM) | 2.6 µg/mL (≈ 4.36 µM) | >10 µg/mL | >10 µg/mL | –
C=C(C)C1CCC2(C(=O)O)CCC3(C)C(CCC4C5(C)CCC(OC(=O)Cc6cc(OC)ccc6OC)C(C)(C)C5CCC43C)C12 (centres unmarked) [Derivative 1108] | 1.5 µg/mL (≈ 2.36 µM) | >4 µg/mL | 4.6 µg/mL (≈ 7.25 µM) | 1.0 µg/mL (≈ 1.58 µM) | 1.7 µg/mL (≈ 2.68 µM) | >10 µg/mL | 1.3 µg/mL (≈ 2.05 µM)
C=C(C)C1CCC2(C(=O)O)CCC3(C)C(CCC4C5(C)CCC(OC(=O)c6ccccc6C(F)(F)F)C(C)(C)C5CCC43C)C12 (centres unmarked) [Derivative 942] | 0.5 µg/mL (≈ 0.795 µM) | >10 µg/mL | 4.0 µg/mL (≈ 6.36 µM) | 2.2 µg/mL (≈ 3.5 µM) | 10.0 µg/mL (≈ 15.9 µM) | >10 µg/mL | >4.0 µg/mL
CC(C)C1CCC2(C(=O)O)CCC3(C)C(CCC4C5(C)CCC(OC(=O)c6ccc(F)cc6F)C(C)(C)C5CCC43C)C12 (centres unmarked) [Derivative 937] | 0.9 µg/mL (≈ 1.5 µM) | 2.5 µg/mL (≈ 4.17 µM) | 1.1 µg/mL (≈ 1.84 µM) | 1.2 µg/mL (≈ 2 µM) | 5.9 µg/mL (≈ 9.85 µM) | 1.7 µg/mL (≈ 2.84 µM) | 1.6 µg/mL (≈ 2.67 µM)
C=CC(=O)OC(=O)C12CCC(C(=C)C)C1C1CCC3C4(C)CCC(O)C(C)(C)C4CCC3(C)C1(C)CC2 (centres unmarked) [Derivative 1101] | 1.9 µg/mL (≈ 3.72 µM) | >10 µg/mL | 1.7 µg/mL (≈ 3.33 µM) | 1.2 µg/mL (≈ 2.35 µM) | 1.6 µg/mL (≈ 3.13 µM) | >10 µg/mL | 3.5 µg/mL (≈ 6.85 µM)
CC(C)C1CCC2(C(=O)O)CCC3(C)C(CCC4C5(C)CCC(=NNc6ccc(F)cc6)C(C)(C)C5CCC43C)C12 (centres unmarked) [Derivative 829] | 0.4 µg/mL (≈ 0.708 µM) | >10 µg/mL | >4 µg/mL | 0.5 µg/mL (≈ 0.885 µM) | >10 µg/mL | 1.3 µg/mL (≈ 2.3 µM) | 0.5 µg/mL (≈ 0.885 µM)
C=C(C)C1CCC2(C(=O)O)CCC3(C)C(CCC4C5(C)CCC(OC(=O)C67CCC(C(C)C)C6C6CCC8C9(C)CC(Br)C(=O)C(C)(C)C9CCC8(C)C6(C)CC7)C(C)(C)C5CCC43C)C12 (centres unmarked) [Derivative 1155] | 1.1 µg/mL (≈ 1.13 µM) | >10 µg/mL | >10 µg/mL | >10 µg/mL | >10 µg/mL | >10 µg/mL | >4.0 µg/mL
CC(C)C1CCC2(C(=O)O)CCC3(C)C(CCC4C5(C)CCC(NNc6ccccc6)C(C)(C)C5CCC43C)C12 (centres unmarked) [Derivative 878] | 1.6 µg/mL (≈ 2.92 µM) | – | 0.8 µg/mL (≈ 1.46 µM) | 0.4 µg/mL (≈ 0.729 µM) | 2.25 µg/mL (≈ 4.1 µM) | 1.75 µg/mL (≈ 3.19 µM) | 3.5 µg/mL (≈ 6.38 µM)
COc1ccc(NNC2CCC3(C)C(CCC4(C)C3CCC3C5C(C(C)C)CCC5(C(=O)O)CCC34C)C2(C)C)cc1 (centres unmarked) [Derivative 912] | 1.0 µg/mL (≈ 1.73 µM) | 8.5 µg/mL (≈ 14.7 µM) | >4 µg/mL | 1.2 µg/mL (≈ 2.07 µM) | 7.0 µg/mL (≈ 12.1 µM) | 0.35 µg/mL (≈ 0.605 µM) | –
CC(C)C1CCC2(C(=O)O)CCC3(C)C(CCC4C5(C)CCC(=NNC(=O)c6ccccc6)C(C)(C)C5CCC43C)C12 (centres unmarked) [Derivative 807] | 1.0 µg/mL (≈ 1.74 µM) | >10 µg/mL | <0.5 µg/mL | – | 4.0 µg/mL (≈ 6.96 µM) | – | 1.7 µg/mL (≈ 2.96 µM)
